The results in this text go back to patent US11173151B2, “Substituted triazole derivatives and uses thereof” (BAYER AKTIENGESELLSCHAFT, priority 2017, dated 2021).

The structures appear in SMILES notation.

In test [1] the target is T1, human V1a receptor (Homo sapiens, UniProt P37288).
T1 construct: expressed in transfected cells; host or cells: CHO K1 (ATCC), also stably transfected with a modified aequorin
Put plainly: Cellular in vitro assay for determining vasopressin receptor activity, V1a receptor cell line (CHO, aequorin luminescence). The class given is cell-based. Conditions: for IC50: CHO cell line transfected with human V1a receptor, [Arg]-vasopressin at EC50 concentration, read-out: IC50 hV1a; for ratio IC50 hV2/hV1a: selectivity ratio IC50 hV2 / IC50 hV1a. In a few lines:
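Luminescence from reconstituted aequorin, reporting intracellular calcium release, was measured immediately after adding [Arg]-vasopressin at EC50 concentration to CHO K1 cells pretreated 10 minutes with graded compound concentrations. Inhibition gave IC50 values.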

The target in test [2] is T2, human V2 receptor (Homo sapiens, UniProt P30518).
T2 construct: expressed in transfected cells; host or cells: CHO K1 (ATCC) expressing firefly luciferase under a CRE-responsive promoter
T2 sequence (P30518 whole entry): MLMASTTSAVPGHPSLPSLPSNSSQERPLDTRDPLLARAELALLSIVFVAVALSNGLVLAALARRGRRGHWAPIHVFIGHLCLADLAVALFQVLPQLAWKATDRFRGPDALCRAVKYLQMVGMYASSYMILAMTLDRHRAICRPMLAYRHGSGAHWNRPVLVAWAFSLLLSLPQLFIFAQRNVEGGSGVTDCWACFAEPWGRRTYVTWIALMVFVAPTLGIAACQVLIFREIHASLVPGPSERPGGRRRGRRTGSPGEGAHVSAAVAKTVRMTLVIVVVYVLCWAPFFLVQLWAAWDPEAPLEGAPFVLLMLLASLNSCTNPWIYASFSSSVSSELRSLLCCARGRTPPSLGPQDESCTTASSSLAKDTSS
Nature of the test: Cellular in vitro assay for determining vasopressin receptor activity, V2 receptor cell line (CHO, CRE-luciferase). The note with it: CHO cell line transfected with human V2 receptor; [Arg8]-vasopressin at EC50 concentration, 3 hours; read-out: IC50 hV2. The class given is cell-based.

T1 sequence (P37288 whole entry): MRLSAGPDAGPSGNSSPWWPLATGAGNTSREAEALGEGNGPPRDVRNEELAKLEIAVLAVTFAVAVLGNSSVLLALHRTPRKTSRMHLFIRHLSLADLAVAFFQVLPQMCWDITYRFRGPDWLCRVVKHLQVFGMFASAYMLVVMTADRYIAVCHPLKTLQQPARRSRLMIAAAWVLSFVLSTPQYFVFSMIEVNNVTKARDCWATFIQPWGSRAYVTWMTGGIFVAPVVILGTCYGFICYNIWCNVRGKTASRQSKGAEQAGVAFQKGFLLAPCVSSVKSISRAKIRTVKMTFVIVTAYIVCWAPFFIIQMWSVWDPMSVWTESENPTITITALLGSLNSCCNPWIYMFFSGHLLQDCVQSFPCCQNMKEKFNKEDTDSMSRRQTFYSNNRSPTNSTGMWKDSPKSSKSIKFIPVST

Consider `O=C(NCC1CC1)c1ccccc1-n1cnc(Cn2nc(-c3ccc(Cl)cc3)n(C[C@H](O)C(F)(F)F)c2=O)n1` [Example 325, 2-[3-({3-(4-Chlorophenyl)-5-oxo-4-[(2S)-3,3,3-trifluoro-2-hydroxypropyl]-4,5-dihydro-1H-1,2,4-triazol-1-yl}methyl)-1H-1,2,4-triazol-1-yl]-N-(cyclopropylmethyl)benzamide], for which the IC50 in test [1] turned out to be 1.01 nM; in test [2], 120 nM. Moreover, the “ratio IC50 hV2/hV1a” value in test [1] is given as 118.8.

`CC1(C)CCCN(C(=O)c2ccccc2-n2cnc(Cn3nc(-c4ccc(Cl)cc4)n(C[C@H](O)C(F)(F)F)c3=O)n2)C1` [Example 327, 5-(4-Chlorophenyl)-2-[(1-{2-[(3,3-dimethylpiperidin-1-yl)carbonyl]phenyl}-1H-1,2,4-triazol-3-yl)methyl]-4-[(2S)-3,3,3-trifluoro-2-hydroxypropyl]-2,4-dihydro-3H-1,2,4-triazol-3-one]: in test [1], the IC50 worked out at 4.4 nM and the “ratio IC50 hV2/hV1a” value was determined as 112.5. Also, the half-inhibitory concentration (IC50) in test [2] worked out at 495 nM.

In the case of `CN(C(=O)c1ccccc1-n1cnc(Cn2nc(-c3ccc(Cl)cc3)n(C[C@H](O)C(F)(F)F)c2=O)n1)C1CCCCC1` [Example 329, 2-[3-({3-(4-Chlorophenyl)-5-oxo-4-[(2S)-3,3,3-trifluoro-2-hydroxypropyl]-4,5-dihydro-1H-1,2,4-triazol-1-yl}methyl)-1H-1,2,4-triazol-1-yl]-N-cyclohexyl-N-methylbenzamide], in test [1], the IC50 turned out to be 11.1 nM and the “ratio IC50 hV2/hV1a” value stood at 171.9. Besides, the IC50 in test [2] was 1900 nM.

`CN(Cc1ccco1)C(=O)c1ccccc1-n1cnc(Cn2nc(-c3ccc(Cl)cc3)n(C[C@H](O)C(F)(F)F)c2=O)n1` [Example 330, 2-[3-({3-(4-Chlorophenyl)-5-oxo-4-[(2S)-3,3,3-trifluoro-2-hydroxypropyl]-4,5-dihydro-1H-1,2,4-triazol-1-yl}methyl)-1H-1,2,4-triazol-1-yl]-N-(furan-2-ylmethyl)-N-methylbenzamide]: in test [1], the IC50 amounted to 9.95 nM and the “ratio IC50 hV2/hV1a” value is 135.7. The half-inhibitory concentration (IC50) in test [2] worked out at 1350 nM.

Turning to `CN1CCCN(C(=O)c2ccccc2-n2cnc(Cn3nc(-c4ccc(Cl)cc4)n(C[C@H](O)C(F)(F)F)c3=O)n2)CC1` [Example 331, 5-(4-Chlorophenyl)-2-[(1-{2-[(4-methyl-1,4-diazepan-1-yl)carbonyl]phenyl}-1H-1,2,4-triazol-3-yl)methyl]-4-[(2S)-3,3,3-trifluoro-2-hydroxypropyl]-2,4-dihydro-3H-1,2,4-triazol-3-one], in test [1], the concentration for half-maximal inhibition (IC50) was found to be 33 nM and the “ratio IC50 hV2/hV1a” value is 233.3. Besides, in test [2], the IC50 came to 7700 nM.

Take `CN(C)[C@H]1CCN(C(=O)c2ccccc2-n2cnc(Cn3nc(-c4ccc(Cl)cc4)n(C[C@H](O)C(F)(F)F)c3=O)n2)C1` [Example 332, 5-(4-Chlorophenyl)-2-{[1-(2-{[(3S)-3-(dimethylamino)pyrrolidin-1-yl]carbonyl}phenyl)-1H-1,2,4-triazol-3-yl]methyl}-4-[(2S)-3,3,3-trifluoro-2-hydroxypropyl]-2,4-dihydro-3H-1,2,4-triazol-3-one]: in test [1], the IC50 stood at 20.5 nM and the “ratio IC50 hV2/hV1a” value is reported as 509.8. For the same compound, the IC50 in test [2] turned out to be 10500 nM.

With `CN(C)[C@@H]1CCN(C(=O)c2ccccc2-n2cnc(Cn3nc(-c4ccc(Cl)cc4)n(C[C@H](O)C(F)(F)F)c3=O)n2)C1` [Example 333, 5-(4-Chlorophenyl)-2-{[1-(2-{[(3R)-3-(dimethylamino)pyrrolidin-1-yl]carbonyl}phenyl)-1H-1,2,4-triazol-3-yl]methyl}-4-[(2S)-3,3,3-trifluoro-2-hydroxypropyl]-2,4-dihydro-3H-1,2,4-triazol-3-one], in test [1], the half-inhibitory concentration (IC50) came out at 5.55 nM and the “ratio IC50 hV2/hV1a” value was found to be 1612.6. The IC50 in test [2] was determined as 8950 nM.

Consider `O=C(c1ccccc1-n1cnc(Cn2nc(-c3ccc(Cl)cc3)n(C[C@H](O)C(F)(F)F)c2=O)n1)N1CCSC1` [Example 334, 5-(4-Chlorophenyl)-2-({1-[2-(1,3-thiazolidin-3-ylcarbonyl)phenyl]-1H-1,2,4-triazol-3-yl}methyl)-4-[(2S)-3,3,3-trifluoro-2-hydroxypropyl]-2,4-dihydro-3H-1,2,4-triazol-3-one], for which, in test [1], the half-maximal inhibitory concentration (IC50) stood at 2.95 nM and the “ratio IC50 hV2/hV1a” value came to 289.8. Besides, in test [2], the IC50 came to 855 nM.

In the case of `COC[C@H]1CCCN1C(=O)c1ccccc1-n1cnc(Cn2nc(-c3ccc(Cl)cc3)n(C[C@H](O)C(F)(F)F)c2=O)n1` [Example 335, 5-(4-Chlorophenyl)-2-{[1-(2-{[(2R)-2-(methoxymethyl)pyrrolidin-1-yl]carbonyl}phenyl)-1H-1,2,4-triazol-3-yl]methyl}-4-[(2S)-3,3,3-trifluoro-2-hydroxypropyl]-2,4-dihydro-3H-1,2,4-triazol-3-one], in test [1], the IC50 turned out to be 15.5 nM and the “ratio IC50 hV2/hV1a” value came out at 71.3. The half-inhibitory concentration (IC50) in test [2] came out at 1100 nM.

In the case of `CC1(C)CCCN1C(=O)c1ccccc1-n1cnc(Cn2nc(-c3ccc(Cl)cc3)n(C[C@H](O)C(F)(F)F)c2=O)n1` [Example 336, 5-(4-Chlorophenyl)-2-[(1-{2-[(2,2-dimethylpyrrolidin-1-yl)carbonyl]phenyl}-1H-1,2,4-triazol-3-yl)methyl]-4-[(2S)-3,3,3-trifluoro-2-hydroxypropyl]-2,4-dihydro-3H-1,2,4-triazol-3-one], the half-inhibitory concentration (IC50) in test [1] stood at 2.8 nM; in test [2] it was 1270 nM. Besides, the “ratio IC50 hV2/hV1a” value in test [1] was found to be 453.6.

`O=C(c1ccccc1-n1cnc(Cn2nc(-c3ccc(Cl)cc3)n(C[C@H](O)C(F)(F)F)c2=O)n1)N1CCCCC1` [Example 338, 5-(4-Chlorophenyl)-2-({1-[2-(piperidin-1-ylcarbonyl)phenyl]-1H-1,2,4-triazol-3-yl}methyl)-4-[(2S)-3,3,3-trifluoro-2-hydroxypropyl]-2,4-dihydro-3H-1,2,4-triazol-3-one]: in test [1], the IC50 was found to be 1.6 nM and the “ratio IC50 hV2/hV1a” value is recorded as 600.0. For the same compound, the IC50 in test [2] stood at 960 nM.

As for `COC[C@@H]1CCCN1C(=O)c1ccccc1-n1cnc(Cn2nc(-c3ccc(Cl)cc3)n(C[C@H](O)C(F)(F)F)c2=O)n1` [Example 339, 5-(4-Chlorophenyl)-2-{[1-(2-{[(2S)-2-(methoxymethyl)pyrrolidin-1-yl]carbonyl}phenyl)-1H-1,2,4-triazol-3-yl]methyl}-4-[(2S)-3,3,3-trifluoro-2-hydroxypropyl]-2,4-dihydro-3H-1,2,4-triazol-3-one], in test [1], the IC50 stood at 2.75 nM and the “ratio IC50 hV2/hV1a” value came out at 1327.3. Also, in test [2], the IC50 was 3650 nM.

With `O=C(NC1CC1)c1ccccc1-n1cnc(Cn2nc(-c3ccc(Cl)cc3)n(C[C@H](O)C(F)(F)F)c2=O)n1` [Example 340, 2-[3-({3-(4-Chlorophenyl)-5-oxo-4-[(2S)-3,3,3-trifluoro-2-hydroxypropyl]-4,5-dihydro-1H-1,2,4-triazol-1-yl}methyl)-1H-1,2,4-triazol-1-yl]-N-cyclopropylbenzamide], in test [1], the IC50 amounted to 8.5 nM and the “ratio IC50 hV2/hV1a” value is on record as 45.9. Besides, the IC50 in test [2] came out at 390 nM.

Regarding `CC(C)CNC(=O)c1ccccc1-n1cnc(Cn2nc(-c3ccc(Cl)cc3)n(C[C@H](O)C(F)(F)F)c2=O)n1` [Example 341, 2-[3-({3-(4-Chlorophenyl)-5-oxo-4-[(2S)-3,3,3-trifluoro-2-hydroxypropyl]-4,5-dihydro-1H-1,2,4-triazol-1-yl}methyl)-1H-1,2,4-triazol-1-yl]-N-(2-methylpropyl)benzamide], in test [1], the 50% inhibitory concentration (IC50) was found to be 1.55 nM and the “ratio IC50 hV2/hV1a” value was found to be 132.3. For the same compound, the IC50 in test [2] is 205 nM.

For `O=C(NC1CCCCCC1)c1ccccc1-n1cnc(Cn2nc(-c3ccc(Cl)cc3)n(C[C@H](O)C(F)(F)F)c2=O)n1` [Example 342, 2-[3-({3-(4-Chlorophenyl)-5-oxo-4-[(2S)-3,3,3-trifluoro-2-hydroxypropyl]-4,5-dihydro-1H-1,2,4-triazol-1-yl}methyl)-1H-1,2,4-triazol-1-yl]-N-cycloheptylbenzamide], in test [1], the concentration for half-maximal inhibition (IC50) was 6.15 nM and the “ratio IC50 hV2/hV1a” value is on record as 59.3. Moreover, the IC50 in test [2] was 365 nM.

Turning to `O=C(NC1CCCC1)c1ccccc1-n1cnc(Cn2nc(-c3ccc(Cl)cc3)n(C[C@H](O)C(F)(F)F)c2=O)n1` [Example 343, 2-[3-({3-(4-Chlorophenyl)-5-oxo-4-[(2S)-3,3,3-trifluoro-2-hydroxypropyl]-4,5-dihydro-1H-1,2,4-triazol-1-yl}methyl)-1H-1,2,4-triazol-1-yl]-N-cyclopentylbenzamide], in test [1], the half-maximal inhibitory concentration (IC50) stood at 0.87 nM and the “ratio IC50 hV2/hV1a” value was determined as 118.4. The IC50 in test [2] was determined as 103 nM.

In the case of `CC(C)(C)NC(=O)c1ccccc1-n1cnc(Cn2nc(-c3ccc(Cl)cc3)n(C[C@H](O)C(F)(F)F)c2=O)n1` [Example 344, N-Tert-butyl-2-[3-({3-(4-chlorophenyl)-5-oxo-4-[(2S)-3,3,3-trifluoro-2-hydroxypropyl]-4,5-dihydro-1H-1,2,4-triazol-1-yl}methyl)-1H-1,2,4-triazol-1-yl]benzamide], the concentration for half-maximal inhibition (IC50) is 0.93 nM in test [1] and 4.7 nM in test [2]. Also, the “ratio IC50 hV2/hV1a” value in test [1] worked out at 5.0.

In the case of `CC[C@H](C)NC(=O)c1ccccc1-n1cnc(Cn2nc(-c3ccc(Cl)cc3)n(C[C@H](O)C(F)(F)F)c2=O)n1` [Example 346, N-[(2S)-Butan-2-yl]-2-[3-({3-(4-chlorophenyl)-5-oxo-4-[(2S)-3,3,3-trifluoro-2-hydroxypropyl]-4,5-dihydro-1H-1,2,4-triazol-1-yl}methyl)-1H-1,2,4-triazol-1-yl]benzamide], in test [1], the IC50 amounted to 1.75 nM and the “ratio IC50 hV2/hV1a” value was determined as 67.7. In addition, in test [2], the IC50 is 119 nM.
